The record followed here is PubChem BioAssay AID248 (DTP/NCI, 2004).

Where “and” joins values, the source holds several entries; their conditions need not be identical. Equal values may be shown once. Toxic doses and inconclusive results are not listed.

The assay concerns L1210 leukemia ip in BDF1 mice, survival T/C. The assay can be described thus: NCI In Vivo Anticancer Drug Screen. Data for tumor model L1210 Leukemia (intraperitoneal) in B6D2F1 (BDF1) mice. The following applies: endpoint: mean survival time, higher = longer survival. A digest of the protocol: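 Antitumor effect is assessed in tumor-bearing animals. Survival in the compound arm is compared with a vehicle-dosed control arm and expressed as their quotient.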

[1] abbreviates: dose: 50.0 mg/kg/injection, schedule: Q01DX001 (ip), vehicle: carboxymethylcellulose (CMC).

Regarding `O=C1CN(CCN2CC(=O)NC(=O)C2)CC(=O)N1`, the T/C was 112 % of control (dose: 6.25 mg/kg/injection, schedule: Q03HX008 (ip), vehicle: steriod suspending solution); 103 % of control (dose: 10.8 mg/kg/injection, schedule: Q01DX009 (ip), vehicle: steriod suspending solution); 154 % of control (dose: 12.5 mg/kg/injection, schedule: Q01DX009 (ip), vehicle: steriod suspending solution); 123 % of control (dose: 12.5 mg/kg/injection, schedule: Q01DX009 (oral), vehicle: steriod suspending solution); 116 % of control (dose: 12.5 mg/kg/injection, schedule: Q01DX009 (sc), vehicle: steriod suspending solution); 177 % of control (dose: 12.5 mg/kg/injection, schedule: Q03HX024 (ip), vehicle: steriod suspending solution). The T/C is 156 % of control and 167 % of control (dose: 12.5 mg/kg/injection, schedule: Q03HX032 (ip), vehicle: other); 108 % of control (dose: 14.0 mg/kg/injection, schedule: Q01DX009 (ip), vehicle: steriod suspending solution); 214 % of control and 216 % of control (dose: 18.7 mg/kg/injection, schedule: Q03HX032 (ip), vehicle: other); 119 % of control (dose: 23.0 mg/kg/injection, schedule: Q01DX009 (ip), vehicle: steriod suspending solution); 116 % of control (dose: 25.0 mg/kg/injection, schedule: Q01DX009 (oral), vehicle: steriod suspending solution); 150 % of control (dose: 25.0 mg/kg/injection, schedule: Q01DX Z (ip), vehicle: steriod suspending solution). Further, the T/C (dose: 25.0 mg/kg/injection, schedule: Q03HX024 (ip), vehicle: steriod suspending solution) was 153 % of control; the T/C (dose: 39.0 mg/kg/injection, schedule: Q01DX001 (ip), vehicle: steriod suspending solution) is 109 % of control; the T/C (dose: 39.0 mg/kg/injection, schedule: Q01DX009 (ip), vehicle: steriod suspending solution) is 152 % of control; the T/C (dose: 50.0 mg/kg/injection, schedule: Q01DX001 (ip), vehicle: steriod suspending solution) was 107 % of control; the T/C (dose: 50.0 mg/kg/injection, schedule: Q01DX009 (ip), vehicle: steriod suspending solution) was 212 % of control; the T/C (dose: 50.0 mg/kg/injection, schedule: Q01DX009 (oral), vehicle: steriod suspending solution) is 113 % of control. Besides, the T/C reads like this: (dose: 50.0 mg/kg/injection, schedule: Q01DX009 (sc), vehicle: steriod suspending solution) 154 % of control; (dose: 50.0 mg/kg/injection, schedule: Q01DX Z (ip), vehicle: steriod suspending solution) 164 % of control; (dose: 50.0 mg/kg/injection, schedule: Q03HX008 (ip), vehicle: steriod suspending solution) 164 % of control; (dose: 50.0 mg/kg/injection, schedule: Q03HX024 (ip), vehicle: steriod suspending solution) 165 % of control; (dose: 65.0 mg/kg/injection, schedule: Q01DX001 (ip), vehicle: steriod suspending solution) 118 % of control; (dose: 65.0 mg/kg/injection, schedule: Q01DX009 (ip), vehicle: steriod suspending solution) 176 % of control. The T/C is, setting by setting: (dose: 100.0 mg/kg/injection, schedule: Q01DX001 (ip), vehicle: steriod suspending solution) 112 % of control; (dose: 100.0 mg/kg/injection, schedule: Q01DX009 (oral), vehicle: steriod suspending solution) 121 % of control; (dose: 100.0 mg/kg/injection, schedule: Q04DX003 (ip), vehicle: steriod suspending solution) 154 % of control; (dose: 200.0 mg/kg/injection, schedule: Q01DX001 (ip), vehicle: steriod suspending solution) 166 % of control; (dose: 200.0 mg/kg/injection, schedule: Q04DX003 (ip), vehicle: steriod suspending solution) 189 % of control; (dose: 400.0 mg/kg/injection, schedule: Q01DX001 (ip), vehicle: steriod suspending solution) 119 % of control. Besides, the T/C (dose: 400.0 mg/kg/injection, schedule: Q04DX003 (ip), vehicle: steriod suspending solution) is 162 % of control.

With `CN(C)c1ccc(C=Nc2ccc(Cl)cc2)cc1`, the T/C was 91 % of control (dose: 100.0 mg/kg/injection, schedule: Q01DX001 (ip), vehicle: Klucel (hydroxypropylcellulose) (HPC)); 93 % of control (dose: 100.0 mg/kg/injection, schedule: Q04DX003 (ip), vehicle: Klucel (hydroxypropylcellulose) (HPC)); 93 % of control (dose: 200.0 mg/kg/injection, schedule: Q01DX001 (ip), vehicle: Klucel (hydroxypropylcellulose) (HPC)); 91 % of control (dose: 200.0 mg/kg/injection, schedule: Q04DX003 (ip), vehicle: Klucel (hydroxypropylcellulose) (HPC)); 90 % of control (dose: 400.0 mg/kg/injection, schedule: Q01DX001 (ip), vehicle: Klucel (hydroxypropylcellulose) (HPC)); 91 % of control (dose: 400.0 mg/kg/injection, schedule: Q04DX003 (ip), vehicle: Klucel (hydroxypropylcellulose) (HPC)).

In the case of `CC1CN1S(=O)(=O)N1CC1C` (centres undefined), the T/C under setting [1] is 111 % of control.

As for `CC(=O)Nc1ccc2c(c1)Cc1c(F)ccc(F)c1-2`, the T/C was 98 % of control under setting [1]; 91 % of control (dose: 100.0 mg/kg/injection, schedule: Q01DX001 (ip), vehicle: carboxymethylcellulose (CMC)); 91 % of control (dose: 200.0 mg/kg/injection, schedule: Q01DX001 (ip), vehicle: carboxymethylcellulose (CMC)); 98 % of control (dose: 400.0 mg/kg/injection, schedule: Q01DX001 (ip), vehicle: carboxymethylcellulose (CMC)).

For `C=CC(=O)N1CCN(C(=O)C=C)CC1` (tested in a mixture with another compound), the T/C is 101 % of control (dose: 0.04 mg/kg/injection, schedule: Q04DX002 (ip), vehicle: saline); 97 % of control (dose: 0.09 mg/kg/injection, schedule: Q04DX002 (ip), vehicle: saline); 97 % of control and 100 % of control (dose: 0.18 mg/kg/injection, schedule: Q04DX002 (ip), vehicle: saline); 109 % of control (dose: 0.75 mg/kg/injection, schedule: Q04DX002 (ip), vehicle: saline); 103 % of control (dose: 1.5 mg/kg/injection, schedule: Q04DX002 (ip), vehicle: saline); 106 % of control (dose: 3.12 mg/kg/injection, schedule: Q04DX002 (ip), vehicle: saline). Moreover, the T/C was 97 % of control (dose: 6.25 mg/kg/injection, schedule: Q04DX002 (ip), vehicle: saline + alcohol); 103 % of control (dose: 6.25 mg/kg/injection, schedule: Q04DX002 (ip), vehicle: saline); 101 % of control (dose: 12.5 mg/kg/injection, schedule: Q04DX002 (ip), vehicle: saline + alcohol); 94 % of control (dose: 12.5 mg/kg/injection, schedule: Q04DX002 (ip), vehicle: saline with Tween-80); 103 % of control (dose: 12.5 mg/kg/injection, schedule: Q04DX002 (ip), vehicle: saline); 104 % of control and 89 % of control (dose: 25.0 mg/kg/injection, schedule: Q04DX002 (ip), vehicle: saline + alcohol). The T/C (dose: 25.0 mg/kg/injection, schedule: Q04DX002 (ip), vehicle: saline with Tween-80) is 109 % of control; the T/C (dose: 50.0 mg/kg/injection, schedule: Q04DX002 (ip), vehicle: saline + alcohol) was 92 % of control; the T/C (dose: 50.0 mg/kg/injection, schedule: Q04DX002 (ip), vehicle: saline with Tween-80) is 91 % of control; the T/C (dose: 50.0 mg/kg/injection, schedule: Q04DX002 (ip), vehicle: saline) is 96 % of control and 105 % of control; the T/C (dose: 100.0 mg/kg/injection, schedule: Q04DX002 (ip), vehicle: saline + alcohol) is 100 % of control; the T/C (dose: 100.0 mg/kg/injection, schedule: Q04DX002 (ip), vehicle: saline) was 100 % of control and 97 % of control and 105 % of control. Besides, the T/C is 97 % of control and 90 % of control (dose: 200.0 mg/kg/injection, schedule: Q04DX002 (ip), vehicle: saline); 90 % of control (dose: 400.0 mg/kg/injection, schedule: Q04DX002 (ip), vehicle: saline).

Consider `CCC1=C2C(=O)c3ccccc3C2=C(C)S(=O)(=O)O1`, for which the T/C reads like this: (dose: 12.5 mg/kg/injection, schedule: Q01DX009 (ip), vehicle: saline with Tween-80) 95 % of control; (dose: 25.0 mg/kg/injection, schedule: Q01DX009 (ip), vehicle: saline with Tween-80) 108 % of control; (dose: 50.0 mg/kg/injection, schedule: Q01DX009 (ip), vehicle: saline with Tween-80) 94 % of control and 111 % of control; (dose: 100.0 mg/kg/injection, schedule: Q04DX003 (ip), vehicle: saline with Tween-80) 96 % of control; (dose: 200.0 mg/kg/injection, schedule: Q04DX003 (ip), vehicle: saline with Tween-80) 96 % of control.

On to `CC(=O)OCCSC#N`, for which the T/C (dose: 12.5 mg/kg/injection, schedule: Q04DX003 (ip), vehicle: saline with Tween-80) was 98 % of control and the T/C (dose: 25.0 mg/kg/injection, schedule: Q04DX003 (ip), vehicle: saline with Tween-80) is 97 % of control.
